Assay results: ChEMBL document CHEMBL1201862, “PubChem BioAssay data set” (2004)
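A five-concentration, 48-hour dose response in 96-well plates underlies each endpoint, interpolated linearly between surrounding concentrations. Here, GI50 denotes the concentration required for 50% inhibition of growth.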 Active and inactive are the calls of the source. Cut-off read from the data, not from the text of the source: active = GI50 up to about 1.1 µM and inactive = higher.

Columns and labels:
Experiment in all cases: NCI anticancer screen, dose series, 48 h
[1] = test system: SK-MEL-2
[2] = test system: SF-268
[3] = test system: UO-31
[4] = test system: OVCAR-5
[5] = test system: Hs-578T
[6] = test system: IGROV-1
[7] = test system: HOP-92
[8] = test system: KM12
[9] = test system: A549
[10] = test system: SW-620
[11] = test system: ACHN
[12] = test system: NCI/ADR-RES
[13] = test system: COLO 205
[14] = test system: SF-295
[15] = test system: NCI-H522
[16] = test system: MDA-MB-435
[17] = test system: MDA-MB-231
[18] = test system: RXF 393
[19] = test system: A498

SMILES	GI50 [1]	GI50 [2]	GI50 [3]	GI50 [4]	GI50 [5]	GI50 [6]	GI50 [7]	GI50 [8]	GI50 [9]	GI50 [10]	GI50 [11]	GI50 [12]	GI50 [13]	GI50 [14]	GI50 [15]	GI50 [16]	GI50 [17]	GI50 [18]	GI50 [19]
Cc1cnc2c(c1)C(=O)N(c1ccc(Oc3ccccc3)cc1)S2(=O)=O	> 100 µM (inactive)	> 100 µM (inactive)	> 100 µM (inactive)	> 100 µM (inactive)	> 100 µM (inactive)	57.8 µM (inactive)	> 100 µM (inactive)	> 100 µM (inactive)	> 100 µM (inactive)	> 100 µM (inactive)	> 100 µM (inactive)	> 100 µM (inactive)	> 100 µM (inactive)	> 100 µM (inactive)	57.7 µM (inactive)	> 100 µM (inactive)	> 100 µM (inactive)	–	–
Cc1cc(C)c2cc(N)c(Cl)nc2n1	> 100 µM (inactive)	> 100 µM (inactive)	63.4 µM (inactive)	> 100 µM (inactive)	> 100 µM (inactive)	> 100 µM (inactive)	> 100 µM (inactive)	> 100 µM (inactive)	> 100 µM (inactive)	> 100 µM (inactive)	> 100 µM (inactive)	> 100 µM (inactive)	> 100 µM (inactive)	> 100 µM (inactive)	18.7 µM (inactive)	> 100 µM (inactive)	> 100 µM (inactive)	> 100 µM (inactive)	–
CC(C)CCCC(=O)CCCCCCC(=O)CCN(O)C(=O)C(N)CO (stereo unspecified)	17.1 µM (inactive)	26.2 µM (inactive)	12.2 µM (inactive)	19.8 µM (inactive)	28.5 µM (inactive)	13.5 µM (inactive)	–	17.6 µM (inactive)	–	30.3 µM (inactive)	16.1 µM (inactive)	16.1 µM (inactive)	23.7 µM (inactive)	18.3 µM (inactive)	–	25.8 µM (inactive)	16.2 µM (inactive)	11 µM (inactive)	16.3 µM (inactive)
COC1CC(OC2C(C)OC(OC3C(C)OC(OC4C(C)OC(O[C@H]5CC[C@@]6(C)C(=CC[C@]7(O)[C@@H]6C[C@@H](OC(=O)/C=C/c6ccccc6)[C@@]6(C)[C@]7(O)CC[C@@]6(O)C(C)=O)C5)CC4OC)CC3OC)CC2OC)OC(C)C1O (stereo partly specified)	> 12.5 µM (inactive)	> 12.5 µM (inactive)	3.11 µM (inactive)	> 12.5 µM (inactive)	> 12.5 µM (inactive)	> 12.5 µM (inactive)	> 12.5 µM (inactive)	10.1 µM (inactive)	> 12.5 µM (inactive)	> 12.5 µM (inactive)	> 12.5 µM (inactive)	> 12.5 µM (inactive)	> 12.5 µM (inactive)	> 12.5 µM (inactive)	> 12.5 µM (inactive)	> 12.5 µM (inactive)	> 12.5 µM (inactive)	–	–
NC(=O)[N+](=CC(=S)Nc1ccccc1Cl)C(N)=O	> 100 µM (inactive)	> 100 µM (inactive)	> 100 µM (inactive)	> 100 µM (inactive)	> 100 µM (inactive)	> 100 µM (inactive)	> 100 µM (inactive)	> 100 µM (inactive)	> 100 µM (inactive)	> 100 µM (inactive)	> 100 µM (inactive)	> 100 µM (inactive)	> 100 µM (inactive)	> 100 µM (inactive)	> 100 µM (inactive)	> 100 µM (inactive)	> 100 µM (inactive)	> 100 µM (inactive)	–
CSc1c(C#N)c(O)n(-c2ccc(Cl)cc2)c(=O)c1C(C)=O	> 100 µM (inactive)	61.7 µM (inactive)	24.9 µM (inactive)	45.7 µM (inactive)	> 100 µM (inactive)	–	–	> 100 µM (inactive)	50.2 µM (inactive)	44.7 µM (inactive)	–	38.4 µM (inactive)	24.2 µM (inactive)	–	0.433 µM (active)	88.3 µM (inactive)	88.3 µM (inactive)	33.6 µM (inactive)	29.3 µM (inactive)
